The data set deals with CCRIS mutagenicity, Ames/micronucleus/aberration tests. Description: CCRIS mutagenicity studies.
The mark [1] stands for this setting: Test System: AMES SALMONELLA TYPHIMURIUM, Strain/Indicator: TA98, Metabolic Activation: NONE, Method: STANDARD PLATE.
The mark [2] stands for this setting: Test System: AMES SALMONELLA TYPHIMURIUM, Strain/Indicator: TA100, Metabolic Activation: NONE, Method: STANDARD PLATE.
Where [3] appears, read: Test System: AMES SALMONELLA TYPHIMURIUM, Strain/Indicator: TA100, Metabolic Activation: NONE, Method: PREINCUBATION
Where [4] appears, read: Test System: AMES SALMONELLA TYPHIMURIUM, Strain/Indicator: TA100, Metabolic Activation: RAT, LIVER, S-9, AROCLOR 1254, Method: STANDARD PLATE.
Where [5] appears, read: Test System: AMES SALMONELLA TYPHIMURIUM, Strain/Indicator: TA98, Metabolic Activation: NONE, Method: PREINCUBATION
[6] abbreviates: Test System: AMES SALMONELLA TYPHIMURIUM, Strain/Indicator: TA1535, Metabolic Activation: NONE, Method: PREINCUBATION
Setting [7] is: Test System: AMES SALMONELLA TYPHIMURIUM, Strain/Indicator: TA1537, Metabolic Activation: NONE, Method: PREINCUBATION

Calls of active or inactive are those of the source. How the calls were made is not given here.

For the molecule `OC[C@H]1OC(O[C@H]2[C@H](O)[C@@H](O)C(O[C@H]3[C@H](O)[C@@H](O)[C@@H](O)O[C@@H]3CO)O[C@@H]2CO)[C@H](O)[C@@H](O)[C@@H]1O` (some centres undefined), the mutagenic call is, setting by setting: under setting [1], “inactive; negative”; (Test System: AMES SALMONELLA TYPHIMURIUM, Strain/Indicator: TA98, Metabolic Activation: RAT, LIVER, S-9, Method: STANDARD PLATE) “inactive; negative”; under setting [2], “inactive; negative”; (Test System: AMES SALMONELLA TYPHIMURIUM, Strain/Indicator: TA100, Metabolic Activation: RAT, LIVER, S-9, Method: STANDARD PLATE) “inactive; negative”; (Test System: AMES SALMONELLA TYPHIMURIUM, Strain/Indicator: TA1535, Metabolic Activation: NONE, Method: STANDARD PLATE) “inactive; negative”; (Test System: AMES SALMONELLA TYPHIMURIUM, Strain/Indicator: TA1535, Metabolic Activation: RAT, LIVER, S-9, Method: STANDARD PLATE) “inactive; negative”. In addition, the mutagenic call (Test System: AMES SALMONELLA TYPHIMURIUM, Strain/Indicator: TA1537, Metabolic Activation: NONE, Method: STANDARD PLATE) is “inactive; negative”; the mutagenic call (Test System: AMES SALMONELLA TYPHIMURIUM, Strain/Indicator: TA1537, Metabolic Activation: RAT, LIVER, S-9, Method: STANDARD PLATE) was “inactive; negative”; the mutagenic call (Test System: E. COLI, Strain/Indicator: WP2 UVRA, Metabolic Activation: NONE, Method: STANDARD PLATE) was “inactive; negative”; the mutagenic call (Test System: E. COLI, Strain/Indicator: WP2 UVRA, Metabolic Activation: RAT, LIVER, S-9, Method: STANDARD PLATE) was “inactive; negative”.

For the molecule `O=C(O)Cc1c[nH]c2ccc(O)cc12`, the mutagenic call under setting [3] is “inactive; negative”.

As to `CC(C)(O)CCc1ccc(O)c2c(=O)c3c(O)c4c(cc3oc12)O[C@H]1OC=C[C@@]41O`, the mutagenic call under setting [1] is “inactive; negative”; the mutagenic call (Test System: AMES SALMONELLA TYPHIMURIUM, Strain/Indicator: TA98, Metabolic Activation: RAT, LIVER, S-9, AROCLOR 1254, Method: STANDARD PLATE) was “active; positive”; the mutagenic call under setting [2] was “inactive; negative”; the mutagenic call under setting [4] was “active; positive”.

In the case of `CC[C@@]1(O)C[C@H](O[C@H]2C[C@H](N(C)C)[C@H](O)[C@H](C)O2)c2c(cc3c(c2O)C(=O)c2c(O)cccc2C3=O)[C@H]1C(=O)OC`, the mutagenic call reads like this: (Test System: AMES SALMONELLA TYPHIMURIUM, Strain/Indicator: TA102, Metabolic Activation: NONE, Method: STANDARD PLATE) “active; positive”; (Test System: AMES SALMONELLA TYPHIMURIUM, Strain/Indicator: TA104, Metabolic Activation: NONE, Method: STANDARD PLATE) “active; positive”.

With `Nc1cc(N)c(N=Nc2ccc(S(=O)(=O)O)cc2)cc1N=Nc1ccc(-c2ccc(N=Nc3ccc(C(=O)O)c(O)c3)cc2)cc1`, the mutagenic call (Test System: AMES SALMONELLA TYPHIMURIUM, Strain/Indicator: TA98, Metabolic Activation: HAMSTER, LIVER, S-9, Method: PREINCUBATION (PRIVAL METHOD)) was “active; positive”.

For the molecule `O=C1C(c2[nH]c3ccc(S(=O)(=O)O)cc3c2O)=Nc2ccc(S(=O)(=O)O)cc21`, the mutagenic call was “inactive; negative” under setting [5]; “inactive; negative” (Test System: AMES SALMONELLA TYPHIMURIUM, Strain/Indicator: TA98, Metabolic Activation: S-9, Method: PREINCUBATION); “inactive; negative” under setting [3]; “inactive; negative” (Test System: AMES SALMONELLA TYPHIMURIUM, Strain/Indicator: TA100, Metabolic Activation: S-9, Method: PREINCUBATION); “inactive; negative” (Test System: Mouse lymphoma, Strain/Indicator: L5178Y (tk+/tk-), Metabolic Activation: None, Method: Suspension/plate); “active; positive” (Test System: Mouse lymphoma, Strain/Indicator: L5178Y (tk+/tk-), Metabolic Activation: Rat, liver, S-9, Aroclor 1254, Method: Suspension/plate).

Regarding `CCCCOc1cc(C)ccc1C(=O)NOC(C)=O`, the mutagenic call is, setting by setting: under setting [2], “active; positive”; (Test System: AMES SALMONELLA TYPHIMURIUM, Strain/Indicator: TA100, Metabolic Activation: RAT, S-9, AROCLOR, Method: STANDARD PLATE) “active; positive”.

With `c1ccc2c(c1)c1ccccc1c1ccccc21`, the mutagenic call was “active; positive” (Test System: AMES SALMONELLA TYPHIMURIUM, Strain/Indicator: TA98, Metabolic Activation: RAT, LIVER, S-9, AROCLOR 1254, Method: FLUCTUATION) and “active; positive” under setting [4].

Take `Clc1cc(Cl)c(Cl)c(Cl)c1`: the mutagenic call was “inactive; negative” (End Point: IN VITRO CHROMOSOMAL ABERRATIONS, Test System: CHO-LB CELLS, Metabolic Activation: NONE); “inactive; negative” (End Point: IN VITRO CHROMOSOMAL ABERRATIONS, Test System: CHO-LB CELLS, Metabolic Activation: RAT, LIVER, S-9, AROCLOR 1254); “inactive; negative” (Test System: AMES SALMONELLA TYPHIMURIUM, Strain/Indicator: TA98, Metabolic Activation: HAMSTER, LIVER, S-9, AROCLOR 1254, Method: PREINCUBATION); “inactive; negative” under setting [5]; “inactive; negative” (Test System: AMES SALMONELLA TYPHIMURIUM, Strain/Indicator: TA98, Metabolic Activation: RAT, LIVER, S-9, AROCLOR 1254, Method: PREINCUBATION); “inactive; negative” (Test System: AMES SALMONELLA TYPHIMURIUM, Strain/Indicator: TA100, Metabolic Activation: HAMSTER, LIVER, S-9, AROCLOR 1254, Method: PREINCUBATION). For the same molecule, the mutagenic call is, setting by setting: under setting [3], “inactive; negative”; (Test System: AMES SALMONELLA TYPHIMURIUM, Strain/Indicator: TA100, Metabolic Activation: RAT, LIVER, S-9, AROCLOR 1254, Method: PREINCUBATION) “inactive; negative”; (Test System: AMES SALMONELLA TYPHIMURIUM, Strain/Indicator: TA1535, Metabolic Activation: HAMSTER, LIVER, S-9, AROCLOR 1254, Method: PREINCUBATION) “inactive; negative”; under setting [6], “inactive; negative”; (Test System: AMES SALMONELLA TYPHIMURIUM, Strain/Indicator: TA1535, Metabolic Activation: RAT, LIVER, S-9, AROCLOR 1254, Method: PREINCUBATION) “inactive; negative”; (Test System: AMES SALMONELLA TYPHIMURIUM, Strain/Indicator: TA1537, Metabolic Activation: HAMSTER, LIVER, S-9, AROCLOR 1254, Method: PREINCUBATION) “inactive; negative”. For the same molecule, the mutagenic call under setting [7] was “inactive; negative” and the mutagenic call (Test System: AMES SALMONELLA TYPHIMURIUM, Strain/Indicator: TA1537, Metabolic Activation: RAT, LIVER, S-9, AROCLOR 1254, Method: PREINCUBATION) was “inactive; negative”.

Consider `CN(C)CCN(Cc1ccc(Cl)s1)c1ccccn1`, for which the mutagenic call was “inactive; negative” (Test System: AMES SALMONELLA TYPHIMURIUM, Strain/Indicator: TA98, Metabolic Activation: HAMSTER, LIVER, S-9, AROCLOR 1254 (10%), Method: PREINCUBATION); “inactive; negative” under setting [5]; “inactive; negative” (Test System: AMES SALMONELLA TYPHIMURIUM, Strain/Indicator: TA98, Metabolic Activation: RAT, LIVER, S-9, AROCLOR 1254 (10%), Method: PREINCUBATION); “inactive; negative” (Test System: AMES SALMONELLA TYPHIMURIUM, Strain/Indicator: TA100, Metabolic Activation: HAMSTER, LIVER, S-9, AROCLOR 1254 (10%), Method: PREINCUBATION); “inactive; negative” under setting [3]; “inactive; negative” (Test System: AMES SALMONELLA TYPHIMURIUM, Strain/Indicator: TA100, Metabolic Activation: RAT, LIVER, S-9, AROCLOR 1254 (10%), Method: PREINCUBATION). The mutagenic call was “inactive; negative” (Test System: AMES SALMONELLA TYPHIMURIUM, Strain/Indicator: TA1535, Metabolic Activation: HAMSTER, LIVER, S-9, AROCLOR 1254 (10%), Method: PREINCUBATION); “inactive; negative” under setting [6]; “inactive; negative” (Test System: AMES SALMONELLA TYPHIMURIUM, Strain/Indicator: TA1535, Metabolic Activation: RAT, LIVER, S-9, AROCLOR 1254 (10%), Method: PREINCUBATION); “inactive; negative” (Test System: AMES SALMONELLA TYPHIMURIUM, Strain/Indicator: TA1537, Metabolic Activation: HAMSTER, LIVER, S-9, AROCLOR 1254 (10%), Method: PREINCUBATION); “inactive; negative” under setting [7]; “inactive; negative” (Test System: AMES SALMONELLA TYPHIMURIUM, Strain/Indicator: TA1537, Metabolic Activation: RAT, LIVER, S-9, AROCLOR 1254 (10%), Method: PREINCUBATION).

The values above are taken from PubChem BioAssay AID1259407 (Chemical Carcinogenesis Research Information System (CCRIS), 2018).
